Experiments:
[1] = Stepwise formation constants for Fe-ligand system by titration in 0.1M NaCl; type: physicochemical; details: for pFe^3+: pH 7.4, ligand 10 μM, metal 1 μM, HySS; for K111 / K122 / K133: stepwise constant, Fe-ligand system, Example 53
Description: Stepwise formation constants for M^n+-ligand systems were determined by spectrophotometric titration when metal complexes have a strong absorbance in the visible region due to ligand to metal charge transfer.
In a typical experiment, the sample solution was prepared according to the following procedure: compound Apo7041 (12.96 mg) was weighed into a 50 mL volumetric flask, and about 40 mL of 0.1 M NaCl was added. The mixture was sonicated for 10 min to give a clear colorless solution. The iron stock solution (atomic absorption standard, Aldrich, 565 μL, 10.00 μmol) was pipetted into the solution, followed by the addition of 1.000 N NaOH (170 μL). More of the 0.1 M NaCl was added to volume and the resulting solution was vortexed to mix. The molar ratio between the total iron and the total Apo7041 was 1/5.1. The mixture was vortexed at rt for 1 h. 20 mL of the sample solution was transferred into a 35 mL beaker by using a 10 mL digital pipet. The sample solution was circulated between the beaker and the flow cell using a sipper system. The sample solution was titrated against hydrochloric acid solutions at 22° C. until the pH reached 0.021. After each addition of acid, the solution was allowed to equilibrate until a constant pH reading was reached. The pH and the UV-Vis spectrum were recorded for each measurement. For each measurement enough acid was added so that there was a slight decrease in the absorbance of the spectrum. Altogether, 68 measurements were taken to finish the experiment.
The resulting data set was then analyzed using pHAB. The formation constants for Fe-Apo7041 system were optimized using the model shown in the first column of the table.
pM^n+ is defined as −log [M(H2O)m]^n+ at physiological conditions, i.e.: pH 7.4, a ligand concentration of 10 μM, and a metal concentration of 1 μM. To calculate pM^n+ for a MLn system, βn and pKa values are needed (βn are the formation constants for M^n++n L^−⇄MLn; pKa are the equilibrium constants for L^−+n H^+⇄LHn^(n-1)+). The pM^n+ is calculated using the HySS software (HYSS© 2000 Protonic Software).
The log β values of the Fe-Apo7323 system were determined by spectrophotometric titration using an Agilent 8453 UV-visible spectroscopy system (see Example 29B). The sample solution was a mixture of Fe^3+ (2×10^−4 M) and Apo7323 (1×10^−3 M) in 0.1 N NaCl aqueous solvent. The titration data in a pH range of 3.408 to 0.655 were fitted with pHAB using the model shown in FIG. 1 to obtain Log β111, Log β122, and Log β133.
The sample solution was a mixture of Fe^3+ (6×10^−3M) and Apo7323 (1.8×10^−2M) in 0.1 N NaCl aqueous solvent. The titration started at pH 1.72 and ended at pH 11.5 using 3 M NaOH as the titrant. The titration data in a pH range of 3 to 10 were fitted with Hyperquad2000 software using the model:
[drawing 175] where 133 is the species (FeL3H3)^3+, 132 is the species is (FeL3H2)^2+, 131 is the species (FeL3H)^+, and 130 is the species FeL3.
(§1) After obtaining three pKa values for Apo7323 (ligand), three pKa values for the Fe-Apo7323 complex, and the log β values for Fe-Apo7323 as shown in the following table, a speciation plot (FIG. 14) was constructed using the HySS software program. pFe was also calculated using the HySS software.

[2] = Fe speciation plot (HySS); type: physicochemical; details: for % FeL2H2 at pH 7.4 / % FeL3 (species 130, neutral/uncharged ferric chelate) at pH 7.4 / % FeL3H2 (species 132) at pH 7.4 / % FeL3H3 (species 133) at pH 7.4 / % FeL3H (species 131) at pH 7.4: Fe:ligand 1:10, [Fe]=1×10^−6 M, [L]=1×10^−5 M
Description: Example 54 illustrates the speciation distribution of several amino fluorinated derivatives of 3-hydroxypyridin-4-(1H)-ones of the invention. The speciation plot (distribution of ferric chelate species) of two compounds of formula I (Apo7067 and Apo7323) at pH 7.4 is provided in the following table.
as §1

[3] = system: human neuroblastoma MC-65 cells; assay: cells; details: for EC100 / minimal effective concentration: Homo sapiens, MC65, 48 h; for EC100: read-out: EC100 (maximum effective concentration); for minimal effective concentration: read-out: TH (threshold protective concentration); for CC2 (cytotoxic concentration): MC-65, cultured without tetracycline; for CC2 (cytotoxic concentration) / CC1 (cytotoxic concentration): viability below 80%; for CC1 (cytotoxic concentration): MC-65, presence of TET
How it was run: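 MC-65 cells (conditional Aβ fusion-protein expression, TET-repressed) were washed free of TET and FBS, then exposed to compound ~48 h in serum-free medium without or with 1 μg/mL TET.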

[4] = 0.1 M NaCl, spectrophotometric titration
[5] = 0.1 M NaCl, spectrophotometric titration, fitted

Row | SMILES | Log β111 (Fe3+) [1, 4] | Log β122 (Fe3+) [1, 4] | Log β133 (Fe3+) [1, 4] | pFe^3+ [1] | EC100 [3] [µM] | minimal effective concentration [3] [µM] | CC2 (cytotoxic concentration) [3] [µM] | CC1 (cytotoxic concentration) [3] [µM] | Log β130 (Fe3+) ([1]; Example 53: Log β131 − pKa1(C)) | Log β131 (Fe3+) ([1]; Example 53: Log β132 − pKa2(C)) | Log β132 (Fe3+) ([1]; Example 53: Log β133 − pKa3(C)) | K111 [1] | K122 [1] | K133 [1] | % FeL2H2 at pH 7.4 [2] [%] | % FeL3 (species 130, neutral/uncharged ferric chelate) at pH 7.4 [2] [%] | % FeL3H2 (species 132) at pH 7.4 [2] [%] | % FeL3H3 (species 133) at pH 7.4 [2] [%] | % FeL3H (species 131) at pH 7.4 [2] [%] | further results
1 | CN(C)C(c1c(O)c(=O)ccn1C)C(F)(F)F (stereo not drawn) [Apo7041, 2-[1-(dimethylamino)-2,2,2-trifluoroethyl]-3-hydroxy-1-methylpyridin-4(1H)-one] | 18.1 | 35.0 | 50.5 | pFe^3+ = 23.4 | 10 | 0.1 | 80 | 10 | – | – | – | – | – | – | – | – | – | – | – | Log β130 (Fe3+) ([1]; 0.1 M NaCl, fitted): 38.8; Log β131 (Fe3+) [1, 5]: 44.5; Log β132 (Fe3+) [1, 5]: 48.3; pH from which the FeL3 chelate is stable ([2]; speciation plot FIG. 5): ≥ 5
2 | CNC(c1cn(C)c(C)c(O)c1=O)C(F)(F)F (stereo not drawn) [Apo7056, 3-Hydroxy-1,2-dimethyl-5-[2,2,2-trifluoro-1-(methylamino)ethyl]pyridin-4(1H)-one] | 18.7 | 35.9 | 51.5 | – | 10 | 0.1 | 80 | 80 | 36.5 | 42.3 | 47.3 | 18.7 | 17.2 | 15.6 | 0.0 | 97.5 | 0.0 | 0.0 | 2.40 | –
3 | CN(C)Cc1c(O)c(=O)ccn1CC(F)(F)F [Apo7067, 2-[(dimethylamino)methyl]-3-hydroxy-1-(2,2,2-trifluoroethyl)pyridin-4(1H)-one] | 20.0 | 38.7 | 55.7 | – | 10 | 0.1 | 80 | 80 | 34.5 | 42.6 | 49.6 | 20.0 | 18.7 | 17.0 | – | – | 24.6 | 1.2 | 61.8 | –
4 | O=c1ccn(CC(F)(F)F)c(CN2CCOCC2)c1O [Apo7323, 3-hydroxy-2-(morpholinomethyl)-1-(2,2,2-trifluoroethyl)pyridin-4(1H)-one] | 18.4 | 34.9 | 50.1 | – | 20 | 1 | 80 | 80 | 35.7 | 41.6 | 46.2 | 18.4 | 16.5 | 15.1 | 0.0 | – | 0.0 | 0.0 | 3.1 | –
5 | Cc1c(O)c(=O)c(C(N2CCOCC2)C(F)(F)F)cn1C (stereo not drawn) [Apo7435, 3-hydroxy-1,2-dimethyl-5-(2,2,2-trifluoro-1-morpholinoethyl)pyridin-4(1H)-one] | 15.9 | 30.4 | 44.8 | – | 10 | 1 | 40 | 40 | 35.6 | 39.6 | 42.7 | 15.9 | 14.5 | 14.4 | 0.0 | 100 | 0.0 | 0.0 | 0.00 | –
6 | Cc1c(O)c(=O)ccn1C [Deferiprone, 3-hydroxy-1,2-dimethylpyridin-4(1H)-one, reference compound] | – | – | – | pFe^3+ = 20.2 | – | – | – | – | – | – | – | – | – | – | – | ~100 | – | – | – | Log β130 (Fe3+) ([1]; 0.1 M NaCl, fitted, listed as deferiprone): 37.24; Log β130 (Fe3+) ([1]; 0.1 M NaCl, fitted, listed as drawing 103): Logβ130 = 37.24; Logβ110 (Fe3+) ([1]; 0.1M aqueous NaCl): Logβ110 = 14.85; Logβ120 (Fe3+) ([1]; 0.1M aqueous NaCl): Logβ120 = 27.25

Source: patent US9938240B2, “Fluorinated derivatives of 3-hydroxypyridin-4-ones” (Apotex Technologies Inc., priority 2009, dated 2018)
